Measurements from patent US10556883B2, “Benzenesulfonamide compounds, method for synthesizing same, and use thereof in medicine and cosmetics” (GALDERMA RESEARCH & DEVELOPMENT, priority 2016, dated 2020).
pIC50: −log10 of the molar value.

Tested on: TNFα secretion from LPS stimulated frozen Peripheral Blood Mononuclear Cells (PBMC)
Assay: inhibition of TNFα secretion from LPS stimulated human PBMC (hPBMC assay)
Assay type: cell-based
Conditions: LPS 1 μg/mL, overnight incubation, TNFα by HTRF
Procedure: Activity of the compounds was investigated using human peripheral blood mononuclear cells (hPBMC). This assay was designed to measure the inhibition of the TNFα secretion from LPS stimulated frozen Peripheral Blood Mononuclear Cells (PBMC) isolated from human blood. TNFα levels were measured using HTRF® Human TNFα kit (Cisbio #62TNFPEC) which is a rapid and quantitative sandwich immunoassay based on TR-FRET technology.
Frozen PBMC were quickly thawed, resuspended in culture medium (RPMI 10% inactivated FBS) and viable cells were seeded in 96-well plates (50,000 cells/well). […] After overnight incubation at 37° C., 10 μL of cell supernatant were mixed with 5 μL of each tagged anti-TNFα specific antibody as recommended by the supplier. After 2 hours of incubation at room temperature, the HTRF® signals were measured using a microplate reader (wavelengths: excitation=337 nm, first emission=620 nm, second emission=665 nm).

For `CCC(=O)N1CC(NS(=O)(=O)c2ccc(OCc3cc(C)nc4ccccc34)cc2)(C(=O)NO)C1` [Example 7g, N-hydroxy-3-((4-((2-methylquinolin-4-yl)methoxy)phenyl)sulfonamido)-1-propionylazetidine-3-carboxamide], the pIC50 was > 7.30.

For `CCCC(=O)N1CC(NS(=O)(=O)c2ccc(OCc3cc(C)nc4ccccc34)cc2)(C(=O)NO)C1` [Example 7h, 1-butyryl-N-hydroxy-3-((4-((2-methylquinolin-4-yl)methoxy)phenyl)sulfonamido)azetidine-3-carboxamide], the pIC50 was > 7.30.

In the case of `CCCCC(=O)N1CC(NS(=O)(=O)c2ccc(OCc3cc(C)nc4ccccc34)cc2)(C(=O)NO)C1` [Example 7i, N-hydroxy-3-((4-((2-methylquinolin-4-yl)methoxy)phenyl)sulfonamido)-1-pentanoylazetidine-3-carboxamide], the pIC50 was > 7.30.

With `CC(=O)N1CC(NS(=O)(=O)c2ccc(OCc3cc(C)nc4ccccc34)cc2)(C(=O)NO)C1` [Example 8, 1-acetyl-N-hydroxy-3-((4-((2-methylquinolin-4-yl)methoxy)phenyl)sulfonamido) azetidine-3-carboxamide] the pIC50 was > 7.30.

`Cc1cc(COc2ccc(S(=O)(=O)NC3(CC(=O)NO)CN(C(=O)N4CCCCC4)C3)cc2)c2ccccc2n1` [Example 9, N-hydroxy-2-(3-((4-((2-methylquinolin-4-yl)methoxy)phenyl)sulfonamido)-1-(piperidine-1-carbonyl)azetidin-3-yl)acetamide] was tested, and the pIC50 was > 7.30.

With `Cc1cc(COc2ccc(S(=O)(=O)NC3(CC(=O)NO)CN(C(=O)CN4CCCCC4)C3)cc2)c2ccccc2n1` [Example 12, N-hydroxy-2-(3-((4-((2-methylquinolin-4-yl)methoxy)phenyl)sulfonamido)-1-(2-(piperidin-1-yl)acetyl)azetidin-3-yl)acetamide] the pIC50 was > 7.30.

`Cc1cc(COc2ccc(S(=O)(=O)NC3(CC(=O)NO)CN(C(=O)CC4CCC4)C3)cc2)c2ccccc2n1` [Example 13, 2-(1-(2-cyclobutylacetyl)-3-((4-((2-methylquinolin-4-yl)methoxy)phenyl)sulfonamido)azetidin-3-yl)-N-hydroxyacetamide] was tested, and the pIC50 was > 7.30.

In the case of `Cc1cc(COc2ccc(S(=O)(=O)NC3(C(=O)NO)CN(C(=O)OC(C)(C)C)C3)cc2)c2ccccc2n1` [Example 14, Tert-butyl 3-(hydroxycarbamoyl)-3-((4-((2-methylquinolin-4-yl)methoxy)phenyl)sulfonamido)azetidine-1-carboxylate], the pIC50 was > 7.30.

`Cc1cc(COc2ccc(S(=O)(=O)NC3(C(=O)NO)CN(C(=O)CC(C)(C)C)C3)cc2)c2ccccc2n1` [Example 15, 1-(3,3-dimethylbutanoyl)-N-hydroxy-3-((4-((2-methylquinolin-4-yl)methoxy)phenyl)sulfonamido)azetidine-3-carboxamide] gave a pIC50 of 7.00 to 7.30.

Compound `Cc1cc(COc2ccc(S(=O)(=O)NC3(C(=O)NO)CN(C(=O)N4CCCCC4)C3)cc2)c2ccccc2n1` [Example 16a, N-hydroxy-3-((4-((2-methylquinolin-4-yl)methoxy)phenyl)sulfonamido)-1-(piperidine-1-carbonyl)azetidine-3-carboxamide] has a pIC50 of 7.00 to 7.30.

With `Cc1cc(COc2ccc(S(=O)(=O)NC3(C(=O)NO)CN(C(=O)N4CCOCC4)C3)cc2)c2ccccc2n1` [Example 16b, N-hydroxy-3-((4-((2-methylquinolin-4-yl)methoxy)phenyl)sulfonamido)-1-(morpholine-4-carbonyl)azetidine-3-carboxamide] the pIC50 was > 7.30.

`Cc1cc(COc2ccc(S(=O)(=O)NC3(C(=O)NO)CN(C(=O)N4CCN(C)CC4)C3)cc2)c2ccccc2n1` [Example 16c, N-hydroxy-1-(4-methylpiperazine-1-carbonyl)-3-((4-((2-methylquinolin-4-yl)methoxy)phenyl)sulfonamido)azetidine-3-carboxamide] was tested, and the pIC50 was > 7.30.

In the case of `C=CCOC(=O)N1CC(NS(=O)(=O)c2ccc(OCc3cc(C)nc4ccccc34)cc2)(C(=O)NO)C1` [Example 17, Allyl 3-(hydroxycarbamoyl)-3-((4-((2-methylquinolin-4-yl)methoxy)phenyl)sulfonamido)azetidine-1-carboxylate], the pIC50 was > 7.30.

`Cc1cc(COc2ccc(S(=O)(=O)N(C)C3(C(=O)NO)CN(C(=O)C(C)C)C3)cc2)c2ccccc2n1` [Example 19a, N-hydroxy-1-isobutyryl-3-((N-methyl-4-((2-methylquinolin-4-yl)methoxy)phenyl)sulfonamido)azetidine-3-carboxamide] was tested, and the pIC50 was > 7.30.

`CCC(CC)C(=O)N1CC(C(=O)NO)(N(C)S(=O)(=O)c2ccc(OCc3cc(C)nc4ccccc34)cc2)C1` [Example 19b, 1-(2-ethylbutanoyl)-N-hydroxy-3-((N-methyl-4-((2-methylquinolin-4-yl)methoxy)phenyl)sulfonamido)azetidine-3-carboxamide] was tested, and the pIC50 was 7.00 to 7.30.

With `Cc1cc(COc2ccc(S(=O)(=O)N(C)C3(C(=O)NO)CN(C(=O)C4CCOCC4)C3)cc2)c2ccccc2n1` [Example 19c, N-hydroxy-3-((N-methyl-4-((2-methylquinolin-4-yl)methoxy)phenyl)sulfonamido)-1-(tetrahydro-2H-pyran-4-carbonyl)azetidine-3-carboxamide] the pIC50 was > 7.30.

`Cc1cc(COc2ccc(S(=O)(=O)N(C)C3(C(=O)NO)CN(C(=O)CC(C)C)C3)cc2)c2ccccc2n1` [Example 19d, N-hydroxy-3-((N-methyl-4-((2-methylquinolin-4-yl)methoxy)phenyl)sulfonamido)-1-(3-methylbutanoyl)azetidine-3-carboxamide] was tested, and the pIC50 was > 7.30.

`Cc1cc(COc2ccc(S(=O)(=O)N(C)C3(C(=O)NO)CN(C(=O)OC(C)(C)C)C3)cc2)c2ccccc2n1` [Example 20, Tert-butyl 3-(hydroxycarbamoyl)-3-((N-methyl-4-((2-methylquinolin-4-yl)methoxy)phenyl)sulfonamido)azetidine-1-carboxylate] was tested, and the pIC50 was > 7.30.

In the case of `CCN(C1(C(=O)NO)CN(C(=O)C(C)C)C1)S(=O)(=O)c1ccc(OCc2cc(C)nc3ccccc23)cc1` [Example 21a, 3-((N-ethyl-4-((2-methylquinolin-4-yl)methoxy)phenyl)sulfonamido)-N-hydroxy-1-isobutyrylazetidine-3-carboxamide], the pIC50 was > 7.30.

Compound `CCN(C1(C(=O)NO)CN(C(=O)C2CCOCC2)C1)S(=O)(=O)c1ccc(OCc2cc(C)nc3ccccc23)cc1` [Example 21b, 3-((N-ethyl-4-((2-methylquinolin-4-yl)methoxy)phenyl)sulfonamido)-N-hydroxy-1-(tetrahydro-2H-pyran-4-carbonyl)azetidine-3-carboxamide] has a pIC50 of 7.00 to 7.30.

With `COCCN(C1(C(=O)NO)CN(C(=O)C(C)C)C1)S(=O)(=O)c1ccc(OCc2cc(C)nc3ccccc23)cc1` [Example 22, N-hydroxy-1-isobutyryl-3-((N-(2-methoxyethyl)-4-((2-methylquinolin-4-yl)methoxy)phenyl)sulfonamido)azetidine-3-carboxamide] the pIC50 was > 7.30.

Compound `Cc1cc(COc2ccc(S(=O)(=O)N(C(C)C)C3(C(=O)NO)CN(C(=O)C(C)C)C3)cc2)c2ccccc2n1` [Example 23, N-hydroxy-1-isobutyryl-3-((N-isopropyl-4-((2-methylquinolin-4-yl)methoxy)phenyl)sulfonamido)azetidine-3-carboxamide] has a pIC50 of 6.00 to 6.30.

With `CC(=O)N1CC(CC(=O)NO)(NS(=O)(=O)c2ccc(OCc3cc(C)nc4c(C)cccc34)cc2)C1` [Example 24, 2-(1-acetyl-3-((4-((2,8-dimethylquinolin-4-yl)methoxy)phenyl)sulfonamido)azetidin-3-yl)-N-hydroxyacetamide] the pIC50 was > 7.30.

`Cc1cc(COc2ccc(S(=O)(=O)NC3(CC(=O)NO)CN(C(=O)N4CCOCC4)C3)cc2)c2ccccc2n1` [Example 25, N-hydroxy-2-(3-((4-((2-methylquinolin-4-yl)methoxy)phenyl)sulfonamido)-1-(morpholine-4-carbonyl)azetidin-3-yl)acetamide] was tested, and the pIC50 was > 7.30.

`CO[C@H]1C[C@H](C(=O)N2CC(NS(=O)(=O)c3ccc(OCc4cc(C)nc5ccccc45)cc3)(C(=O)NO)C2)C1` [Example 26a, N-hydroxy-1-((1r,3r)-3-methoxycyclobutane-1-carbonyl)-3-((4-((2-methylquinolin-4-yl)methoxy)phenyl)sulfonamido)azetidine-3-carboxamide] was tested, and the pIC50 was > 7.30.

In the case of `CO[C@H]1C[C@@H](C(=O)N2CC(NS(=O)(=O)c3ccc(OCc4cc(C)nc5ccccc45)cc3)(C(=O)NO)C2)C1` [Example 26b, N-hydroxy-1-((1s,3s)-3-methoxycyclobutane-1-carbonyl)-3-((4-((2-methylquinolin-4-yl)methoxy)phenyl)sulfonamido)azetidine-3-carboxamide], the pIC50 was > 7.30.

`Cc1cc(COc2ccc(S(=O)(=O)NC3(C(=O)NO)CN(C(=O)CC4CC4)C3)cc2)c2ccccc2n1` [Example 26c, 1-(2-cyclopropylacetyl)-N-hydroxy-3-((4-((2-methylquinolin-4-yl)methoxy)phenyl)sulfonamido)azetidine-3-carboxamide] was tested, and the pIC50 was > 7.30.

For `CC[C@H](C)C(=O)N1CC(NS(=O)(=O)c2ccc(OCc3cc(C)nc4ccccc34)cc2)(C(=O)NO)C1` [Example 26d, (S)-N-hydroxy-1-(2-methylbutanoyl)-3-((4-((2-methylquinolin-4-yl)methoxy)phenyl)sulfonamido)azetidine-3-carboxamide], the pIC50 was > 7.30.

With `Cc1cc(COc2ccc(S(=O)(=O)NC3(C(=O)NO)CN(C(=O)C4CC(F)(F)C4)C3)cc2)c2ccccc2n1` [Example 26e, 1-(3,3-difluorocyclobutane-1-carbonyl)-N-hydroxy-3-((4-((2-methylquinolin-4-yl)methoxy)phenyl)sulfonamido)azetidine-3-carboxamide] the pIC50 was > 7.30.
